Literature values as cited in patent publication US20120064058A1, “COMPOSITIONS FOR PROTEIN-BASED DIETARY PRODUCTS” (ITALFARMACIA SRL, priority 2008, published 2012).

Experiments:
[1] = compared with untreated diabetic rats

## NCC(=O)O [Glycine]
Diabetic rats; [1]
  expression of O-acetyl sialic acid in brain vessels: diminished expression
  incidence of opacity in lens and microaneurysms in the eyes: reduced incidence
Diabetic rats; in comparison with non-treated animals
  corporal weight loss: less intense corporal weight loss

## N=C(N)NCCC[C@H](N)C(=O)O [L-Arginine]
rats
  excretion of orotic acid in the urine: less excretion of orotic acid in the urine
rats; long-term consequence of a protein rich regimen
  kidney hypertrophy: can prevent kidney hypertrophy

## NCCS(=O)(=O)O [L-Taurine]
Diabetic rats
  renal functionality: beneficial effects on renal functionality
